Measured values as given in patent US8461389B2, “Psycho-pharmaceuticals” (University College Dublin, National University of Ireland, …, priority 2008, dated 2013).

How the values were obtained:
[1] = biological target: T1, Sigma 1 receptor (Homo sapiens, UniProt Q99720); assay: Novascreen receptor affinity screen (competition with reference ligand), Sigma 1; assay type: binding; conditions: 1 μM Captodiamine competing with a reference ligand; read-out: percent target inhibition, Sigma 1 receptor
T1 construct: Novascreen (contract screen)
T1 sequence (Q99720 whole entry, species assumed): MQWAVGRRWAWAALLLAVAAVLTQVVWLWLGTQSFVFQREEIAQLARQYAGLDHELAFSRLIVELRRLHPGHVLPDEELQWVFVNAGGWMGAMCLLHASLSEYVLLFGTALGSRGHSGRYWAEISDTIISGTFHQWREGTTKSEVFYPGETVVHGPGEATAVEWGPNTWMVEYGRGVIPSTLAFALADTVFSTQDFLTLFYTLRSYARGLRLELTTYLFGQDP
Protocol: The Structure (FIG. 9A), receptor affinity (FIG. 9B), pharmacokinetics (FIG. 9C) and growth factor modulation (FIG. 9D) of Captodiamine are provided. Analysis of receptor affinities was performed by Novascreen™ and those displacing >20% of the natural ligand are indicated by the filled boxes. Blood levels of Captodiamine were determined by GC mass spectroscopy. In separate samples taken from a cannulated jugular at increasing time intervals following a single intraperitoneal injection of tha drug (5 mg/kg). Growth factor analysis was performed using tissue homogenates and ELISA assays specific for each growth factor (Promega). Values were analysed using a Student t-test and those with a p value<0.05 were accepted as significant and are indicated with an asterisk.
The higher the target inhibition value, the greater the affinity Captodiamine has for this particular receptor as it displaces a greater proportion of the reference ligand. This assay is an automated high throughput assay performed on cell lines that express only one type of receptor and was carried out by Novascreen (www.novascreen.com). Receptor affinity is a good starting point for determining the mechanism of action for a particular compound.

[2] = test system: C57B16 mice; assay: Pre-pulse inhibition of the startle response; assay type: in vivo; conditions: i.p. once daily for 7 days; FIG. 5
Source text: An example of one way of testing for PPI: In the prepulse inhibition (PPI) procedure, the rodent is placed in a small chamber and exposed to a brief pulse of noise. The test is used to assess the subject's ability to “gate” or filter environmental information. In the acoustic (startle model) of sensorimotor gating, a weak acoustic stimulus (ie, the prepulse) decreases the reflexive flinching response (startle) produced by a second, more intense, stimulus (the pulse).
The main three parts of the procedure are prepulse, startle stimulus, and startle reflex. Different prepulse-to-pulse intervals, or lead intervals, are used: 30, 60, 120, 240 and 480 ms. Lead interval counts from the start of prepulse to the start of the pulse. With the interval exceeding 500 ms, prepulse facilitation, such as increased response, is most likely to follow. Burst of white noise is usually used as acoustic startle stimulus. Typical durations are 20 ms for prepulse and 40 ms for pulse. […] Startle response is measured in rodents using the so-called automated “startle chambers” or “stabilimeter chambers”, with detectors recording whole-body reaction. In humans, the movements of oculomotor muscles (“eye-blink reflex” or “eye-blink response” assessed using electromyographic recording of orbicularis oculi muscle and by oculography) could be used as a measure. […]

CCCCSc1ccc(C(SCCN(C)C)c2ccccc2)cc1 (centres unmarked) [Captodiamine, 2-[(4-butylsulfanylphenyl)-phenyl-methyl]sulfanyl-N,N-dimethyl-ethanamin]
inhibition at 1 µM [1]: > 90%
pre-pulse inhibition of startle [2]: no effect
